{"source": "patent US9920295B2", "about": "“Bioreactor for isolation of rare cells and methods of use” (The Trustees of the University of Pennsylvania, priority 2012, dated 2018)", "key": {"[1]": {"system": "BM CD34+-derived cells (CD41+ MK)", "assay": "Ploidy analysis of CD34+-derived cells treated with contractility inhibitors (flow cytometry)", "assay_type": "cell-based, human", "settings": "for maximal polyploid cell number: scaled to 10,000 initial cell input", "experimental": "Fresh purified bone marrow (BM)-derived humanCD34^+ cells were obtained from either the Penn Xenograft Core Facility or AllCells. Cells from at least 10 different donors were used in this study. Purity of the samples (>98%) was confirmed by flow cytometry with monoclonal antibody against human CD34 conjugated to phycoerythrin (PE). All experiments were performed in hematopoietic stem cell (HSC) expansion media (StemLine-II; Sigma) supplemented with 1× antibiotics, and the following human recombinant cytokines SCF (100 ng/mL) and Tpo (100 ng/mL). In some occasions, the media was also supplemented by G-CSF (100 ng/mL). All cytokines were purchased from R&D Systems. After cells were cultured for 4 days, they were treated with different doses of cellular contractility inhibitors, including (±)-blebbistatin (EMDBiosciences), reversine, ML-7, and Y-27632 (Sigma) for indicated durations of up to 3 days. Unfortunately, longer exposure to drug proves toxic even to polyploidy cells under the present culture conditions. Cells were then resuspended in PBS/2% FBS medium and subjected to ploidy analysis: cells were stained with CD41-FITC (BD Biosciences) at room temperature for 30 min, followed by Hoechst 33342 at 37° C. for 30 min. Then cells were stained with Annexin-V-PE (BD Biosciences) in the Annexin-V staining medium, followed by addition of 7-AAD. Stained cells were subjected to flow cytometric analysis (LSR-II; BD Biosciences): only viable cells (7-AAD^− and Hoechst 33342^+) were analyzed for ploidy. Cells with the DNA content of 8 N or higher were considered polyploid. To quantify absolute number of polyploid cells, viable cell number was counted before flow cytometry by Trypan blue exclusion, and this number was multiplied by percentages of each DNA compartment and subpopulations. Each multiplied number was then normalized by initial cell input number before drug treatment in culture."}, "[2]": {"molecular_target": "T1, NMM-IIA (Homo sapiens, UniProt P35579)", "T1 construct": "endogenous in cells; host or cells: THP-1 cells", "T1 sequence (P35579 2-1960 limits assumed)": "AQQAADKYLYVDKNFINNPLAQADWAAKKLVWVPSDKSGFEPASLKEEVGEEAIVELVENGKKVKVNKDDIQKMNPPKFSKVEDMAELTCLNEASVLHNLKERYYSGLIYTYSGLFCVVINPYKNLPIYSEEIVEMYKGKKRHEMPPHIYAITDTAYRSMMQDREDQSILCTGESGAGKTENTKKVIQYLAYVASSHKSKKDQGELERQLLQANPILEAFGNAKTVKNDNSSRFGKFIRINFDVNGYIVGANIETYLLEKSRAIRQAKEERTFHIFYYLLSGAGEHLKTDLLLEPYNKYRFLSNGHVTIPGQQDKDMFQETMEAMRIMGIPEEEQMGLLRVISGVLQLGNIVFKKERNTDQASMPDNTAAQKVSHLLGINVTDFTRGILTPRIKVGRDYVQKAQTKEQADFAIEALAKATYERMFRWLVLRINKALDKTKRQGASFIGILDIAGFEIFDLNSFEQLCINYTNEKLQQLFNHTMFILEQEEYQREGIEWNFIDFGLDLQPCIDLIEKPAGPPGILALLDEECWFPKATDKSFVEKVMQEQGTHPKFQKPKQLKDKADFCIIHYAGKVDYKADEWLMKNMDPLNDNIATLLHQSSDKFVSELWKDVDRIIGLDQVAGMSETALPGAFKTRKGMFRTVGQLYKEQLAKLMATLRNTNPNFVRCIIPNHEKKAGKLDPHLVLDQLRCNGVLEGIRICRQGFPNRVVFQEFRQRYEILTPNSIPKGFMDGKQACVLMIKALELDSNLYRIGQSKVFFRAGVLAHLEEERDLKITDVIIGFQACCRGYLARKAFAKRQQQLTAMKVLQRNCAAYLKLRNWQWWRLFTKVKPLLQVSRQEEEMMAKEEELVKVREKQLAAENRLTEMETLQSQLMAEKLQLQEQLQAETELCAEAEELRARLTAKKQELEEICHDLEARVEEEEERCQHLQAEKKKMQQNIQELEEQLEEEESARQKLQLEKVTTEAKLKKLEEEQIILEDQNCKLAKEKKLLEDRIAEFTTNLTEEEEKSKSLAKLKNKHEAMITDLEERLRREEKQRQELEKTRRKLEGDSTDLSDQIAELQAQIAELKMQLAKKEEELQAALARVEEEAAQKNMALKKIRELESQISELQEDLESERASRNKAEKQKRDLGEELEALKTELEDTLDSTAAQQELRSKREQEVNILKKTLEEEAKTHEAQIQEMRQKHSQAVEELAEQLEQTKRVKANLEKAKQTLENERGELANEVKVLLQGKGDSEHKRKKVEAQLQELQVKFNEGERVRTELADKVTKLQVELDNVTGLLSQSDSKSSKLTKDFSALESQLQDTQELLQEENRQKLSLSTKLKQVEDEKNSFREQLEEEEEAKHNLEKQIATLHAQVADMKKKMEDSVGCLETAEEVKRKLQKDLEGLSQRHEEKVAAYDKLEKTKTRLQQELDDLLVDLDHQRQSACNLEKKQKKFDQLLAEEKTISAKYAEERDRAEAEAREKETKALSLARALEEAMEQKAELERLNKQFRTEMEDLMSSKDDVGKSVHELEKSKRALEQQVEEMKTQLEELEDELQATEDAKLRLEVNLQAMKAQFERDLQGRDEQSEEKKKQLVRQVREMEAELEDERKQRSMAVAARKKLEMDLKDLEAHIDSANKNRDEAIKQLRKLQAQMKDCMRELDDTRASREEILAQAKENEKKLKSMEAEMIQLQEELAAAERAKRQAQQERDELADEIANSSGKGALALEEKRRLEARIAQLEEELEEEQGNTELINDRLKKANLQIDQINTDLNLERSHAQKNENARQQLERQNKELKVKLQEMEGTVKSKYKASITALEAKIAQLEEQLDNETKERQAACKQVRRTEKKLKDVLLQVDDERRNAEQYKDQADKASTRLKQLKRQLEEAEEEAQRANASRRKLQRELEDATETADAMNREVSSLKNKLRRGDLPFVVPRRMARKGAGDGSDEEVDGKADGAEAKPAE", "T1 sequence (P60660 2-151 partner limits assumed)": "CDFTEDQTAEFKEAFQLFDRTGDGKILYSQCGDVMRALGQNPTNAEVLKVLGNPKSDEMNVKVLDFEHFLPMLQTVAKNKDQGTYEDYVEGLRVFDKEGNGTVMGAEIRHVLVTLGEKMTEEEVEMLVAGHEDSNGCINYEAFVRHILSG", "T1 sequence (O14950 2-172 partner limits assumed)": "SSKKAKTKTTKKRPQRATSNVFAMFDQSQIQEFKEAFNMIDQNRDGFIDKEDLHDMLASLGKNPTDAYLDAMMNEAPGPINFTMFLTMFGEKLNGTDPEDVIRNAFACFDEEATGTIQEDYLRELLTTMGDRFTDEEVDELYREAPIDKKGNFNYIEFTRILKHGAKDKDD", "assay": "NMM-IIA phosphorylation in THP-1 cells (IP, MS, flow cytometry)", "assay_type": "cell-based", "experimental": "In general, cells were washed with ice-cold PBS and lysed on ice with lysis buffer (150 mM sodium chloride, 1% Nonidet P-40, 1% protease inhibitor mixture, 1 mM activated sodium orthovanadate, 50 mM Tris at pH 8.0) for 30 min. For immunoprecipitation (IP), 30 mM of pervanadate solution was prepared by mixing sodium orthovanadate with H2O2 for 15 min at room temperature. At least 1×10^7 THP-1 cells were treated with pervanadate with or without blebbistatin at 37° C. for 15 min. Cells were then washed, lysed, and whole-cleared lysate was mixed with anti-NMM-IIA antibody at 4° C. overnight, followed by incubation with Protein G (Invitrogen) for 1 h. For Western blot, whole lysate or IP proteins were separated on 4% to 12% SDS/PAGE gels (NuPAGE 4-12% Bis-Tris, Invitrogen). The proteins were then transferred to a polyvinylidene fluoride (PVDF) membrane with an iBlot Gel Transfer Device (Invitrogen), followed by blocking with 5% nonfat dry milk solution for 1 h. Incubation with primary antibodies was done at 4° C. overnight with 1:1,000β-actin, 1:250 pTyr, and 1:1,000 NMM-IIA antibodies. After washing, the membrane was incubated with 1:2,500 anti-rabbit and 1:1,000 anti-mouse HRP-conjugated IgG antibodies at room temperature for 1 h. […]"}, "[3]": {"system": "CD34+ cells (CFU-E, BFU-E)", "assay": "Erythroid progenitor number in the presence of Epo (flow cytometry)", "assay_type": "cell-based, human", "settings": "SCF, IL-3 and Epo, 3 days", "experimental": "FIG. 20, comprising FIG. 20A through FIG. 20E, illustrates the functional effects of myosin-II inhibition on HSC differentiation. FIG. 20A (Left) illustrates the enrichment of polyploid MKs by Bleb from CD34^+ cells cultured in SCF and Tpo (n=4 donors). Y-axis represents the ratios between polyploid MKs and 2n+4n MKs. […] Hill coefficient=7.0. FIG. 20A (Middle) illustrates the enrichment of BFU-E relative to CFU-GM in the absence of Epo. CD34^+-derived cells were cultured with SCF and Tpo under Bleb and progenitors were enumerated by colony forming assays. […] FIG. 20A (Right) illustrates the sensitivity of erythroid progenitors against Bleb in the presence of Epo. CD34^+ cells were cultured with SCF, IL-3 and Epo for 4 days before treating with Bleb for 3 days, followed by flow cytometry with Hoechst 33342 to stain for nuclei. BFU-E=CD34^+IL-3R^+CD36^-; CFU-E=CD34^-IL-3R^-CD36^+. Absolute values were normalized to […] initial cell input and fit to dose-response curves: […] FIG. 20B is a graph depicting the limiting dilution analyses showing functional LT-HSCs after myosin inhibition. Human-CD34^+-derived cells were treated with Bleb for 3 days and injected intra-tibally into irradiated NSG mice. […] FIG. 20D illustrates the kinetics of human-CD41^+ plts in circulation were measured after transplantation of human CD34^+-derived cells and normalized by the initial number of CD41^+ cells transplanted. Areas under curves show significant differences between drug-treated and untreated. […] FIG. 20E is a graph showing that human-CD41^+ plts derived in vivo after transplantation into NSG mice show the normal plt size compared to human blood plts. […] Freshly purified bone marrow-derived human CD34^+ cells were obtained from either the Penn Xenograft Core Facility or AllCells (Emeryville, Calif.). Cells from at least 20 different donors were used in this study. Purity of the samples (>98%) was confirmed by flow cytometry with monoclonal antibody against human CD34. All experiments were performed in HSC expansion media ([…], Sigma) supplemented with 1× antibiotics, 20% BIT 9500 Serum Substitute (StemCell Technologies), 2 mM […] (Gibco) and the following human recombinant cytokines: SCF (100 ng/ml) and Tpo (100 ng/ml). In some occasions, the media was also supplemented by G-CSF (100 ng/ml), epidermal growth factor (EGF, 100 ng/ml), transforming growth factor beta 1 (TGF-beta1, 100 ng/ml), erythropoietin (EPO, 1 U/ml) and interleukin-3 (IL-3, 10 ng/ml). All cytokines were purchased from R&D Systems. After cells were cultured for 4 days, they were treated with different doses of cellular contractility inhibitors, including (±)-Blebbistatin (Bleb) (EMD Biosciences) and/or CH-223191 (Sigma) for indicated durations of up to 3 days."}}, "note": "Like-named read-outs stand apart in the source and are kept apart here.", "data": [{"smiles": "Cc1ccc2c(c1)C(=O)C1(O)CCN(c3ccccc3)C1=N2", "note": "(racemic) [blebbistatin, (±)-blebbistatin]", "values": [{"measurement": "drug dose found to be toxic", "setting": "[1]", "result": "~100", "unit": "µM"}, {"measurement": "enrichment of mature polyploid MKs", "setting": "[1]", "result": "~10", "unit": "folds"}, {"measurement": "doubling time of polyploid cell generation", "setting": "[1]; 20 μM", "result": 18.2, "unit": "h"}, {"measurement": "Ki", "setting": "[1]; MK polyploidization / progenitor depletion in cells, read-out: inhibition constant Ki", "result": "~7.6", "unit": "µM"}, {"measurement": "maximal polyploid cell number", "setting": "[1]; SCF+Tpo CD41+", "result": 278}, {"measurement": "maximal polyploid cell number", "setting": "[1]; SCF+Tpo CD41−", "result": 1}, {"measurement": "maximal polyploid cell number", "setting": "[1]; SCF+Tpo+G-CSF CD41+", "result": 141}, {"measurement": "maximal polyploid cell number", "setting": "[1]; SCF+Tpo+G-CSF CD41−", "result": 352}, {"measurement": "EC50", "setting": "[1]; dose-response, n≥3 donors, read-out: MK polyploid cell number EC50", "result": 7.6, "unit": "µM"}, {"measurement": "IC50", "setting": "[1]; treatment for 3 d, with or without G-CSF, read-out: CD41+ MK and non-MK polyploid cell number IC50", "result": 7.6, "unit": "µM"}, {"measurement": "pTyr levels", "setting": "[2]; THP-1, basal and phosphatase-inhibited conditions", "result": "decreases pTyr levels"}, {"measurement": "phospho-S1943 of NMM-IIA", "setting": "[2]; THP-1, detergent-soluble monomer", "result": "increases phospho-S1943"}, {"measurement": "IC50", "setting": "[3]; read-out: BFU-E 2n IC50", "result": 10.9, "unit": "µM"}, {"measurement": "IC50", "setting": "[3]; read-out: BFU-E 4n IC50", "result": 13, "unit": "µM"}, {"measurement": "IC50", "setting": "[3]; read-out: CFU-E 2n IC50", "result": 8.7, "unit": "µM"}, {"measurement": "IC50", "setting": "[3]; read-out: CFU-E 4n IC50", "result": 12.9, "unit": "µM"}]}]}
